PubChem BioAssay (NCI)
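GI50 = concentration required for 50% inhibition of growth. The concentration for full growth arrest is given as TGI.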

What was measured:
Assay in all cases: inhibition of tumour cell growth, NCI panel, 384-well format
[1] = system: MDA-MB-435 melanoma
[2] = system: SF-268 CNS
[3] = system: SK-MEL-28 melanoma
[4] = system: HT29 colon
[5] = system: HS 578T breast
[6] = system: COLO 205 colon
[7] = system: K-562 leukemia
[8] = system: OVCAR-8 ovarian
[9] = system: HOP-92 NSCLC
[10] = system: RXF 393 renal
[11] = system: SK-MEL-2 melanoma
[12] = system: T-47D breast
[13] = system: MOLT-4 leukemia

With `CCS(=O)(=O)N1CCC(C(C)n2c(C)c(C(=O)NCc3c(OC)cc(C)[nH]c3=O)c3ccccc32)CC1` (stereo unspecified) the GI50 [1] was greater than 100 µM, the TGI [1] was greater than 100 µM and the GI50 [2] was greater than 42.6 µM. For the same compound, the TGI [2] was greater than 96.3 µM, the GI50 [3] was greater than 100 µM and the TGI [3] was greater than 100 µM. For the same compound, the GI50 [4] was greater than 100 µM, the TGI [4] was greater than 100 µM and the GI50 [5] was greater than 100 µM. For the same compound, the TGI [5] was greater than 100 µM, the GI50 [6] was greater than 100 µM and the TGI [6] was greater than 100 µM. It also gave a GI50 [7] greater than 100 µM, a TGI [7] greater than 100 µM and a GI50 [8] greater than 100 µM. For the same compound, the TGI [8] was greater than 100 µM, the GI50 [9] was greater than 100 µM and the TGI [9] was greater than 100 µM. For the same compound, the GI50 [10] was greater than 100 µM, the TGI [10] was greater than 100 µM and the GI50 [11] was greater than 100 µM. It also gave a TGI [11] greater than 100 µM, a GI50 [12] greater than 64.5 µM and a TGI [12] greater than 100 µM. For the same compound, the GI50 [13] was 42.4 µM and the TGI [13] was greater than 100 µM.
